Data as given in patent publication US6977263B2, “Chemical compounds” (Aventis Pharmaceuticals Inc., priority 2000, dated 2005).
Counter-ions that a name gives are not always drawn.

Molecular target: T1, recombinant human β tryptase (Homo sapiens, UniProt Q15661)
T1 construct: made in house; host or cells: yeast cells
Assay: Tryptase chromogenic enzyme assay (S2366 substrate), Ki determination
Type: biochemical
Conditions: room temperature, 0.5 mM S2366 substrate (2×Km), read at 405 nm; Ki=IC50/(1+[Substrate]/Km)
Experimental: Tryptase inhibition activity is confirmed using either isolated human lung tryptase or recombinant human β tryptase expressed in yeast cells. Essentially equivalent results are obtained using isolated native enzyme or the expressed enzyme. The assay procedure employs a 96 well microplate (Costar 3590) using L-pyroglutamyl-L-prolyl-L-arginine-para-nitroanilide (S2366: Quadratech) as substrate (essentially as described by McEuen et. al. Biochem Pharm, 1996, 52, pages 331-340). Assays are performed at room temperature using 0.5 mM substrate (2×Km) and the microplate is read on a microplate reader (Beckman Biomek Plate reader) at 405 nm wavelength. It was determined using the procedure set forth herein.
Materials and Methods for Tryptase Primary Screen (Chromogenic Assay)
S2366 (Stock solutions of 2.5 mM).
Purified recombinant beta Tryptase Stocks of 310 ug/ml.
• Add 60 ul of diluted substrate (final concentration of 500 uM in assay buffer) to each well • Add compound in duplicates, final concentration of 20 uM, volume 20 ul • Add enzyme at a final concentration of 50 ng/ml in a volume of 20 ul • Total volume for each well is 100 ul • Agitate briefly to mix and incubate at room temp in the dark for 30 minutes • Read absorbencies at […]
Each plate has the following controls • Totals: 60 ul of substrate, 20 ul of buffer (with 0.2% final concentration of DMSO), 20 ul of enzyme • Non-specific: 60 ul of substrate, 40 ul of buffer (with 0.2% DMSO) • Totals: 60 ul of substrate, 20 ul of buffer (No DMSO), 20 ul of enzyme • Non-specific: 60 ul of substrate, 40 ul of buffer (No DMSO) Protocol (IC50 and Ki Determination)
The protocol is essentially the same as above except that the compound is added in duplicates at the following final concentrations: 0.01, 0.03, 0.1, 0.3, 1, 3, 10 uM (All dilutions carried out manually). For every assay, whether single point or IC50 determination, a standard compound is used to derive IC50 for comparison. From the IC 50 value, the Ki can be calculated using the following formula: Ki=IC50/(1+[Substrate]/Km).

T1 sequence (Q15661 31-275): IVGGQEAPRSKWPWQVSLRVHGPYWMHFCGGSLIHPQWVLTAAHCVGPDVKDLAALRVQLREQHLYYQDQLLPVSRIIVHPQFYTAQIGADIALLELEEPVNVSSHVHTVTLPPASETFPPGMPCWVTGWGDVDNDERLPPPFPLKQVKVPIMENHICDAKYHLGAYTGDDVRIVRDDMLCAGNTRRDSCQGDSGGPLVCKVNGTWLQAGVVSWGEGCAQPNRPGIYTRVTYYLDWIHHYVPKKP

Ki [nM]	Compound
1070	NCc1cccc(C2CCN(C(=O)c3cccc(COc4ccccc4)c3)CC2)c1 [Example 15, 3-[1-(3-Phenoxymethyl-benzoyl)-piperidin-4-yl]-benzylamine hydrochloride]
390	NCc1cccc(C2CCN(C(=O)c3ccc(Cl)cc3)CC2)c1 [Example 48, 1-[4-(3-Aminomethyl-phenyl)-piperidin-1-yl]-1-(4-chloro-phenyl)-methanone trifluoroacetate]
450	NCc1cccc(C2CCN(C(=O)c3ccc(CCc4ccccc4)cc3)CC2)c1 [Example 97, 1-[4-(3-Aminomethylphenyl)-piperidin-1-yl]-1-(4-phenylethyl-phenyl)-methanone hydrochloride]
69	Cc1ccc(CN)cc1C1CCN(C(=O)c2cncc(CCc3ccccc3)c2)CC1 [Example 18, 4-Methyl-3-[1-(5-phenylethyl-pyridine-3-carbonyl)-piperidin-4-yl]-benzylamine di-hydrochloride]
390	NCc1cccc(C2CCN(C(=O)c3cccc(-c4nnc(-c5ccccc5Cl)o4)c3)CC2)c1 [Example 49, 1-[4-(3-Aminomethyl-phenyl)-piperidin-1-yl]-1-{3-[5-(2-chloro-phenyl)-[1,3,4]oxadiazol-2-yl]-phenyl}-methanone trifluoroacetate]
180	NCc1cccc(C2CCN(C(=O)c3cccc(CCc4ccccc4O)c3)CC2)c1 [Example 98, 1-[4-(3-Aminomethyl-phenyl)-piperidin-1-yl]-1-{3-[2-(2-hydroxy-phenyl)-ethyl]-phenyl}-methanone hydrochloride]
870	NCc1cccc(C2CCN(C(=O)c3cccc(C#Cc4ccc(F)cc4)c3)CC2)c1 [Example 83, 1-[4-(3-Aminomethyl-phenyl)-piperidin-1-yl]-1-[3-(4-fluoro-phenylethynyl)-phenyl]-methanone trifluoroacetate]
50	NCc1cccc(C2CCN(C(=O)c3ccc(CCc4ccccc4)s3)CC2)c1 [Example 13, 3-[1-(5-Phenylethyl-thiophene-2-carbonyl)-piperidin-4-yl]-benzylamine hydrochloride]
93	N#CC1(c2cccc(CN)c2)CCN(C(=O)c2cncc(CCc3ccccc3)c2)CC1 [Example 35, 4-(3-Aminomethyl-phenyl)-1-(5-phenethyl-pyridine-3-carbonyl)-piperidine-4-carbonitrile]
180	NCc1cccc(C2CCN(C(=O)c3cccc(-c4nnc(-c5ccccc5)o4)c3)CC2)c1 [Example 19, 3-{1-[3-(5-Phenyl-1,3,4-oxadiazol-2-yl)-phenylcarbonyl]-piperidin-4-yl}-benzylamine hydrochloride]
190	NCc1cccc(C2CCN(C(=O)c3cc4sc(Cl)cc4s3)CC2)c1 [Example 92, 1-[4-(3-Aminomethyl-phenyl)-piperidin-1-yl]-1-(5-chloro-thieno[3,2-b]thiophen-2-yl)-methanone trifluoroacetate]
490	NCc1cc(C2CCN(C(=O)c3cncc(CCc4ccccc4)c3)CC2)cs1 [Example 100, dihydrochloride]
290	NCc1cccc(C2CCN(C(=O)c3scc4c3CCCC4)CC2)c1 [Example 70, 1-[4-(3-Aminomethyl-phenyl)-piperidin-1-yl]-1-(4,5,6,7-tetrahydro-benzo[c]thiophen-1-yl)-methanone-trifluoroacetate]
31	NCc1cccc(C2CCN(C(=O)c3ccc(Cl)c(Cl)c3)CC2)c1 [Example 36, [4-(3-Aminomethylphenyl)piperidin-1-yl]-(3,4-dichlorophenyl)methanone trifluoroacetate]
